Assay [1] relates to primary human fibroblasts derived from IPF patients (LL29 cells). The assay is described as follows: Inhibition of fibrosis (αSMA) in TGF-β1 treated primary human fibroblasts from IPF patients. Type of assay: cell-based. The conditions noted are these: Fibroblast, 96 h, TGF-β1 20 ng/mL, 4 days, % αSMA positive cells. An excerpt:
The above synthesized compounds were screened using primary human fibroblasts (derived from IPF patients) treated with TGF-β1 to determine their ability to inhibit the fibrotic process.
Primary human fibroblasts derived from IPF patients (LL29 cells) [^1Xiaoqiu Liu, et.al., “Fibrotic Lung Fibroblasts Show Blunted Inhibition by cAMP Due to Deficient cAMP Response Element-Binding Protein Phosphorylation”, Journal of Pharmacology and Experimental Therapeutics (2005), 315(2), 678-687; ^2Watts, K. L., et.al., “RhoA signaling modulates cyclin D1 expression in human lung fibroblasts; implications for idiopathic pulmonary fibrosis”, Respiratory Research (2006), 7(1), 88] were obtained from American Type Culture Collection (ATCC) and expanded in F12 medium supplemented with 15% Fetal Bovine Serum and Penicillin/Streptomycin.
Each compound was dissolved in DMSO as a 10 mM stock and used to prepare compound source plates. Serial dilution (1:2, 11-point dose-response curves from 10 μM to 1.87 nM) and compound transfer was performed using the ECHO 550 (Labcyte, Sunnyvale, Calif.) into 384-well clear bottom assay plates (Greiner Bio-One) with appropriate DMSO backfill for a final DMSO concentration of 0.1%. LL29 cells were plated at 1,500 cells/well in 80 μl/well F12 medium supplemented with 1% Fetal Bovine Serum. One hour after addition of the cells, TGF-β1 (Peprotech; 20 ng/mL) was added to the plates to induce fibrosis (ref. 1 and 2 above). Wells treated with TGF-β1 and containing DMSO were used as controls. Cells were incubated at 37° C. and 5% CO2 for 4 days. Following incubation for 4 days, SYTOX green nucleic acid stain (Life Technologies [Thermo Fisher Scientific]) was added to the wells at a final concentration of 1 uM and incubated at room temperature for 30 min. Cells were then fixed using 4% formaldehyde (Electron Microscopy Sciences), washed 3 times with PBS followed by blocking and permeabilization using 3% Bovine Serum Albumin (BSA; Sigma) and 0.3% Triton X-100 (Sigma) in PBS. Cells were then stained with antibody specific to α-smooth muscle actin (αSMA; Abcam) (ref. 1 and 2 above) in 3% Bovine Serum Albumin (BSA; Sigma) and 0.3% Triton X-100 (Sigma) in PBS, and incubated overnight at 4° C. Cells were then washed 3 times with PBS, followed by incubation with Alexa Flor-647 conjugated secondary antibody (Life Technologies [Thermo Fisher Scientific]) and DAPI at room temperature for 1 hour. Cells were then washed 3 times with PBS and plates were sealed for imaging. αSMA staining was imaged by excitation at 630 nm and emission at 665 nm and quantified using the Compartmental Analysis program on the CellInsight CX5 (Thermo Scientific). Dead or apoptotic cells were excluded from analysis based on positive SYTOX green staining. % of total cells positive for αSMA were counted in each well and normalized to the average of 11 wells treated with TGF-β1 on the same plate using Dotmatics' Studies Software. The normalized averages (fold change over untreated) of 3 replicate wells for each compound concentration were used to create dose-responses curves and EC50 values were calculated using non-linear regression curve fit in the Dotmatics' Studies Software. The EC50 values are reported.

The subject of assay [2] is Wnt activity (SW480 colon carcinoma cells stably expressing the Sp5-Luc reporter gene). The assay is described as follows: Sp5-Luc reporter gene screening assay for Wnt activity in SW480 cells. Type of assay: cell-based. The settings on record: Homo sapiens, 42 h incubation, luminescence. From the text:
The screening assay for Wnt activity is described as follows. Reporter cell lines can be generated by stably transducing cancer cell lines (e.g., colon cancer) or primary cells (e.g., IEC-6 intestinal cells) with a lentiviral construct that includes a Wnt-responsive promoter driving expression of the firefly luciferase gene.
SW480 colon carcinoma cells were transduced with a lentiviral vector expressing luciferase with a human Sp5 promoter consisting of a sequence of eight TCF/LEF binding sites. SW480 cells stably expressing the Sp5-Luc reporter gene and a hygromycin resistance gene were selected by treatment with 150 μg/ml of hygromycin for 7 days. These stably transduced SW480 cells were expanded in cell culture and used for all further screening activities. For Sp5-Luc reporter gene assays, the cells were plated at 10,000 cells/well in 96-well plates with growth medium containing 10% fetal calf serum and incubated overnight at 37° C. and 5% CO2. Each compound was dissolved in DMSO as a 10 mM stock in standard j-vials and used to prepare compound source plates in dose-response format with 3-fold serial dilutions and a 10 mM top concentration. Compound transfer from serially diluted source plates to assay plates containing the cells was accomplished using a pintool (Multimek 96, Beckman equipped with V&P Scientific FP1S50H pins) based liquid handling protocol. This protocol used a slotted pin to transfer 50 nl of compound from a source plate well to an assay plate well containing 50 μl of cells in growth medium. […] Control wells received 50 nl of DMSO treatment for normalization and calculating IC50 values. The treated cells were incubated at 37° C. and 5% CO2 for an additional forty-two hours. Following incubation, the growth medium was removed and 50 μl of BrightGlo luminescence reagent (Promega) was added to each well of the 96-well assay plates. The plates were placed on an orbital shaker for 5 min and then luminescence was quantified on the Victor3 (Perkin Elmer) plate reader. Readings were normalized to DMSO only treated cells, and normalized activities were utilized for IC50 calculations using the dose-response log (inhibitor) vs. response—variable slope (four parameters) nonlinear regression feature available in GraphPad Prism 5.0 or 6.0.
Background: In a reporter assay the amount or activity of a reporter protein is the signal.

pEC50, pIC50: −log10 of the molar value.

Usually pEC50 stands for −log10 of the EC50, conventionally taken in molar units. By pIC50 is commonly meant the negative decadic logarithm of the IC50, by convention in mol/L. The low end stands for a large IC50, the high end for a small IC50.

The molecule `CCC(=O)Nc1cncc(-c2ccc3[nH]nc(-c4nc5c(-c6cccc(F)c6)ccnc5[nH]4)c3c2)c1` [Compound 1, N-(5-(3-(7-(3-Fluorophenyl)-3H-imidazo[4,5-b]pyridin-2-yl)-1H-indazol-5-yl)pyridin-3-yl)propionamide] gave a negative-log EC50 (pEC50) in assay [1] of 10.82. The molecule also had a negative logarithm of the IC50 (pIC50) in assay [2] of over 9.00.

In turn, `CC(C)C(=O)Nc1cncc(-c2ccc3[nH]nc(-c4nc5c(-c6cccc(F)c6)ccnc5[nH]4)c3c2)c1` [Compound 9] showed a pEC50 in assay [1] of 8.00. In addition, the negative logarithm of the IC50 (pIC50) in assay [2] is 8.52.

In turn, `CN(C)Cc1cncc(-c2ccc3[nH]nc(-c4nc5c(-c6cccc(F)c6)ccnc5[nH]4)c3c2)c1` [Compound 13, 1-(5-(3-(7-(3 -Fluorophenyl)-3H-imidazo[4,5-b]pyridin-2-yl)-1H-indazol-5-yl)pyridin-3-yl)-N,N-dimethylmethanamine] showed a pEC50 in assay [1] of 8.94. Besides, the pIC50 in assay [2] was 6.94.

For `O=C(Nc1cncc(-c2ccc3[nH]nc(-c4nc5c(-c6cccc(F)c6)ccnc5[nH]4)c3c2)c1)C1CC1` [Compound 19, N-(5-(3-(7-(3-Fluorophenyl)-3H-imidazo[4,5-b]pyridin-2-yl)-1H-indazol-5-yl)pyridin-3-yl)cyclopropanecarboxamide], in assay [1], the pEC50 was 10.37. The negative-log IC50 (pIC50) in assay [2] was 9.00.

`O=C(Nc1cncc(-c2ccc3[nH]nc(-c4nc5c(-c6cccc(F)c6)ccnc5[nH]4)c3c2)c1)C1CCCC1` [Compound 21, N-(5-(3-(7-(3-Fluorophenyl)-3H-imidazo[4,5-b]pyridin-2-yl)-1H-indazol-5-yl)pyridin-3-yl)cyclopentanecarboxamide]: the pEC50 in assay [1] was 10.57. The same molecule gave a negative logarithm of the IC50 (pIC50) in assay [2] of 8.04.

On to `CC(C)(C)C(=O)Nc1cncc(-c2ccc3[nH]nc(-c4nc5c(-c6ccc(F)cc6)ccnc5[nH]4)c3c2)c1` [Compound 34, N-(5-(3-(7-(4-Fluorophenyl)-3H-imidazo[4,5-b]pyridin-2-yl)-1H-indazol-5-yl)pyridin-3-yl)pivalamide], for which, in assay [1], the pEC50 is 9.48. In addition, the pIC50 in assay [2] was 7.72.

For the molecule `Fc1ccc(-c2ccnc3[nH]c(-c4n[nH]c5ccc(-c6cncc(CN7CCCC7)c6)cc45)nc23)cc1` [Compound 40, 7-(4-Fluorophenyl)-2-(5-(5-(pyrrolidin-1-ylmethyl)pyridin-3-yl)-1H-indazol-3-yl)-3H-imidazo[4,5-b]pyridine], the pEC50 in assay [1] is 11.05. In addition, the pIC50 in assay [2] was 5.40.

Molecule `O=C(Nc1cncc(-c2ccc3[nH]nc(-c4nc5c(-c6ccc(F)cc6)ccnc5[nH]4)c3c2)c1)C1CCC1` [Compound 46, N-(5-(3-(7-(4-Fluorophenyl)-3H-imidazo[4,5-b]pyridin-2-yl)-1H-indazol-5-yl)pyridin-3-yl)cyclobutanecarboxamide] showed a pEC50 in assay [1] of 10.10. For the same molecule, in assay [2], the pIC50 was 8.70.

In assay [1], `Fc1ccc(-c2ccnc3[nH]c(-c4n[nH]c5ccc(-c6cncnc6)cc45)nc23)cc1` [Compound 52, 7-(4-Fluorophenyl)-2-(5-(pyrimidin-5-yl)-1H-indazol-3-yl)-3H-imidazo[4,5-b]pyridine] gave a pEC50 of 8.90. In assay [2], this molecule gave a pIC50 of 7.59.

For `CN(C)c1cncc(-c2ccc3[nH]nc(-c4nc5c(-c6ccccc6F)ccnc5[nH]4)c3c2)c1` [Compound 59, 5-(3-(7-(2-Fluorophenyl)-3H-imidazo[4,5-b]pyridin-2-yl)-1H-indazol-5-yl)-N,N-dimethylpyridin-3-amine], in assay [1], the negative logarithm of the EC50 (pEC50) is 11.05. Further, the pIC50 in assay [2] was 7.50.

Molecule `CC(C)C(=O)Nc1cncc(-c2ccc3[nH]nc(-c4nc5c(-c6ccccc6F)ccnc5[nH]4)c3c2)c1` [Compound 61, N-(5-(3-(7-(2-Fluorophenyl)-3H-imidazo[4,5-b]pyridin-2-yl)-1H-indazol-5-yl)pyridin-3-yl)isobutyramide] had a pEC50 in assay [1] of 11.05. The molecule further gave a pIC50 in assay [2] of 8.22.

Regarding `O=C(Nc1cncc(-c2ccc3[nH]nc(-c4nc5c(-c6ccccc6F)ccnc5[nH]4)c3c2)c1)C1CC1` [Compound 71, N-(5-(3-(7-(2-Fluorophenyl)-3H-imidazo[4,5-b]pyridin-2-yl)-1H-indazol-5-yl)pyridin-3-yl)cyclopropanecarboxamide], the pEC50 in assay [1] was 8.00. In assay [2], this molecule showed a pIC50 of 7.95.

Molecule `O=C(Nc1cncc(-c2ccc3[nH]nc(-c4nc5c(-c6ccccc6F)ccnc5[nH]4)c3c2)c1)C1CCCC1` [Compound 73, N-(5-(3-(7-(2-Fluorophenyl)-3H-imidazo[4,5-b]pyridin-2-yl)-1H-indazol-5-yl)pyridin-3-yl)cyclopentanecarboxamide] had a pEC50 in assay [1] of 9.42. This molecule also had a pIC50 in assay [2] of 7.89.

In the case of `Nc1cncc(-c2ccc3[nH]nc(-c4nc5c(-c6cccnc6)ccnc5[nH]4)c3c2)c1` [Compound 81, 5-(3-(7-(Pyridin-3-yl)-3H-imidazo[4,5-b]pyridin-2-yl)-1H-indazol-5-yl)pyridin-3-amine], the negative-log EC50 (pEC50) in assay [1] was 11.05. In addition, in assay [2], the negative logarithm of the IC50 (pIC50) was 8.24.

As to `CN(C)CCOc1cncc(-c2ccc3[nH]nc(-c4nc5c(-c6cccc(F)c6)ccnc5[nH]4)c3c2)c1` [Compound 1883, 2-((5-(3-(7-(3-Fluorophenyl)-3H-imidazo[4,5-b]pyridin-2-yl)-1H-indazol-5-yl)pyridin-3-yl)oxy)-N,N-dimethylethanamine], the pEC50 in assay [1] is 10.02.

Turning to `CC(C)CC(=O)Nc1cncc(-c2ccc3[nH]nc(-c4nc5c(-c6cc(F)cc(OCCN(C)C)c6)ccnc5[nH]4)c3c2)c1` [Compound 2198, N-(5-(3-(7-(3-(2-(Dimethylamino)ethoxy)-5-fluorophenyl)-3H-imidazo[4,5-b]pyridin-2-yl)-1H-indazol-5-yl)pyridin-3-yl)-3-methylbutanamide], the pIC50 in assay [2] is 6.74.

With `CC(C)CC(=O)Nc1cncc(-c2ccc3[nH]nc(-c4nc5c(-c6cc(F)cc(OCCN7CCCC7)c6)ccnc5[nH]4)c3c2)c1` [Compound 2242, N-(5-(3-(7-(3-Fluoro-5-(2-(pyrrolidin-1-yl)ethoxy)phenyl)-3H-imidazo[4,5-b]pyridin-2-yl)-1H-indazol-5-yl)pyridin-3-yl)-3-methylbutanamide], the pIC50 in assay [2] is 6.36.

Turning to `CC(C)CC(=O)Nc1cncc(-c2ccc3[nH]nc(-c4nc5c(-c6cc(O)cc(F)c6)ccnc5[nH]4)c3c2)c1` [Compound 2286, N-(5-(3-(7-(3-Fluoro-5-hydroxyphenyl)-3H-imidazo[4,5-b]pyridin-2-yl)-1H-indazol-5-yl)pyridin-3-yl)-3-methylbutanamide], the negative logarithm of the IC50 (pIC50) in assay [2] was 7.26. Against the preceding molecule, the pIC50 is 0.90 log units higher.

`COc1cc(F)cc(-c2ccnc3[nH]c(-c4n[nH]c5ccc(-c6cncc(NC(=O)CC(C)C)c6)cc45)nc23)c1` [Compound 2330, N-(5-(3-(7-(3-Fluoro-5-methoxyphenyl)-3H-imidazo[4,5-b]pyridin-2-yl)-1H-indazol-5-yl)pyridin-3-yl)-3-methylbutanamide]: in assay [2], the pIC50 was 7.70.

For the origin of these results see patent US10280166B2, “2-(1H-indazol-3-yl)-3H-imidazo[4,5-B]pyridine and therapeutic uses thereof” (Samumed, LLC, priority 2014, dated 2019).
